Laboratory results: US8283358B2, “N-sulfonamido polycyclic pyrazolyl compounds” (Elan Pharmaceuticals, Inc., priority 2008, dated 2012)

What follows are molecules tested against T1, gamma-secretase (partially purified extract of IMR-32 cell membranes; substrate MBP-C125 Swe fusion protein, cleavage at the Aβ40 site) (Homo sapiens, UniProt P49768) (assay: Gamma-secretase APP enzyme assay (Example A)). Conditions: class symbols; assay described in Example A; read-out: γAPP IC50.
T1 construct: a partially purified extract of IMR-32 cell membranes as the gamma-secretase enzyme preparation; endogenous in cells; host or cells: IMR-32 cell membranes, partially purified extract
Type: biochemical
Excerpt: The gamma-secretase APP enzyme assay was designed to measure the specific proteolytic cleavage of an APP substrate (MBP-C125 Swe fusion protein) at the Aβ40 site. […] This assay involved two steps beginning with the enzymatic reaction generating a cleavage product that was captured with an immobilized antibody specific for the neo-epitope Aβ40 site. The captured cleavage product was then detected in a sandwich ELISA assay with a biotinylated reporter antibody that is specific to Aβ(17-28). Streptavidin-linked alkaline phosphatase was then added that would generate a fluorescent signal proportional to the amount of cleavage product.
This warmed solution of BigCHAPS (N,N-Bis(3-D-gluconamidopropyl)cholamide) detergent was used to dissolve Brain Extract Type-V (lipid containing a minimum of 40% phosphatidylethanolamine) from Sigma (St. Louis, Mo.) to a concentration of 8 mg/ml. This solution containing BigCHAPS and lipid at 8 mg/ml is then diluted to 0.53 mg/ml lipid with a pre-warmed solution of Hepes and sodium chloride.
Gamma-secretase was then added to a 96-well micro-titre plate and then incubated with various concentrations of inhibitor for 30 minutes at 37° C. MBPC125 substrate was then added to initiate the reaction that would run for two hours at 37° C. The reaction was quenched with the addition of SDS to a final concentration of 0.1% and then 100 μl of the reaction mixture was transferred to a capture ELISA plate and incubated overnight at 4° C. Detection of the cleavage product was performed using a standard sandwich ELISA assay and quantified using a six point standard curve.

| SMILES | IC50 |
| --- | --- |
| O=C1c2[nH]ncc2C2c3c(F)cccc3C1N2S(=O)(=O)c1ccc(C(F)(F)F)nc1 (stereo not drawn) [compound 161] | < 100 nM |
| O=S(=O)(c1ccc(C(F)(F)F)cc1)N1C2Cc3[nH]ncc3C1c1c2ccc2ccccc12 (stereo not drawn) [compound 171] | 100 to 499 nM |
| Cc1noc(-c2ccc3c(c2)C2c4cn[nH]c4CC3N2S(=O)(=O)c2ccc(C(F)(F)F)nc2)n1 (stereo not drawn) [compound 201] | > 1000 nM |
| Cc1noc(-c2ccc3c(c2)C2c4cn[nH]c4CC3N2S(=O)(=O)c2ccc(C(F)(F)F)nc2)n1 (stereo not drawn) [compound 202] | > 1000 nM |
| COC(=O)c1ccc2c(c1)C1c3cn[nH]c3CC2N1S(=O)(=O)c1ccc(C(F)(F)F)nc1 (stereo not drawn) [compound 203] | > 1000 nM |
| COC(=O)c1ccc2c(c1)C1c3cn[nH]c3CC2N1S(=O)(=O)c1ccc(C(F)(F)F)nc1 (stereo not drawn) [compound 205] | 100 to 499 nM |
| O=S(=O)(c1ccc(C(F)(F)F)nc1)N1C2Cc3cccc(Br)c3C1Cc1[nH]ncc12 (stereo not drawn) [compound 213] | 100 to 499 nM |
| O=S(=O)(c1ccc(C(F)(F)F)nc1)N1C2c3c[nH]nc3[C@@H](O)C1c1c(F)cccc12 (stereo partly drawn) [compound 216] | 100 to 499 nM |
| O=S(=O)(c1ccc(C(F)(F)F)nc1)N1C2Cc3[nH]ncc3C1c1cc(Cl)ccc12 (stereo not drawn) [compound 221] | 100 to 499 nM |
| COC(=O)c1cccc2c1C1Cc3[nH]ncc3C2N1S(=O)(=O)c1ccc(C(F)(F)F)nc1 (stereo not drawn) [compound 227] | 100 to 499 nM |
| O=S(=O)(c1ccc(C(F)(F)F)nc1)N1C2Cc3[nH]ncc3C1c1cccc(Cl)c12 (stereo not drawn) [compound 229] | 100 to 499 nM |
| Cc1noc(-c2cccc3c2C2Cc4[nH]ncc4C3N2S(=O)(=O)c2ccc(C(F)(F)F)nc2)n1 (stereo not drawn) [compound 235] | 100 to 499 nM |
| O=S(=O)(c1ccc(C(F)(F)F)nc1)N1C2c3c[nH]nc3[C@H](O)C1c1cccc(F)c12 (stereo partly drawn) [compound 237] | > 1000 nM |
| O=S(=O)(c1ccc(C(F)(F)F)nc1)N1C2c3c[nH]nc3[C@H](O)C1c1c(F)cccc12 (stereo partly drawn) [compound 239] | > 1000 nM |
| O=S(=O)(c1ccc(C(F)(F)F)nc1)N1C2c3c[nH]nc3[C@@H](O)C1c1c(F)cccc12 (stereo partly drawn) [compound 240] | 100 to 499 nM |
| O=S(=O)(c1ccc(C(F)(F)F)nc1)N1C2Cc3[nH]ncc3C1c1cc(-c3ccc(F)cc3)ccc12 (stereo not drawn) [compound 241] | < 100 nM |

The remaining lines, values ahead:

| IC50 | SMILES |
| --- | --- |
| 100 to 499 nM | Cn1ncc(C2CC3Cc4[nH]ncc4C(C2)N3S(=O)(=O)c2ccc(Cl)cc2)n1 (stereo not drawn) [compound 140] |
| < 100 nM | O=C1CCCN1c1ccc(C2CC3Cc4n[nH]cc4C(C2)N3S(=O)(=O)c2ccc(C(F)(F)F)cc2)cc1 (stereo not drawn) [compound 141] |
| < 100 nM | COC(=O)CCCNc1ccc(C2CC3Cc4n[nH]cc4C(C2)N3S(=O)(=O)c2ccc(C(F)(F)F)cc2)cc1 (stereo not drawn) [compound 142] |
| < 100 nM | O=C1c2n[nH]cc2C2c3cc(F)c(F)cc3C1N2S(=O)(=O)c1ccc(C(F)(F)F)nc1 (stereo not drawn) [compound 148] |
| 100 to 499 nM | O=S(=O)(c1ccc(C(F)(F)F)nc1)N1C2Cc3n[nH]cc3C1c1c(F)ccc(F)c12 (stereo not drawn) [compound 149] |
| < 100 nM | O=S(=O)(c1ccc(C(F)(F)F)nc1)N1C2Cc3n[nH]cc3C1c1c(F)ccc(F)c12 (stereo not drawn) [compound 150] |
| < 100 nM | Cc1cc(F)cc2c1C1c3c[nH]nc3CC2N1S(=O)(=O)c1ccc(C(F)(F)F)nc1 (stereo not drawn) [compound 159] |
| < 100 nM | O=S(=O)(c1ccc(C(F)(F)F)cc1)N1C2Cc3[nH]ncc3C1c1ccc3ccccc3c12 (stereo not drawn) [compound 160] |
| < 100 nM | O=S(=O)(c1ccc(C(F)(F)F)nc1)N1C2c3cn[nH]c3C(F)(F)C1c1cccc(F)c12 (stereo not drawn) [compound 166] |
| < 100 nM | N#Cc1ccc2c(c1)C1Cc3n[nH]cc3C2N1S(=O)(=O)c1ccc(C(F)(F)F)nc1 (stereo not drawn) [compound 167] |
| < 100 nM | O=S(=O)(c1ccc(C(F)(F)F)cc1)N1C2Cc3[nH]ncc3C1c1ccc3ccccc3c12 (stereo not drawn) [compound 168] |
| 100 to 499 nM | O=S(=O)(c1ccc(C(F)(F)F)cc1)N1C2Cc3[nH]ncc3C1c1ccc3ccccc3c12 (stereo not drawn) [compound 169] |
| < 100 nM | O=S(=O)(c1ccc(C(F)(F)F)cc1)N1C2Cc3[nH]ncc3C1c1c2ccc2ccccc12 (stereo not drawn) [compound 170] |
| < 100 nM | O=C1c2[nH]ncc2C2c3ccccc3C1N2S(=O)(=O)c1ccc(C(F)(F)F)cc1 (stereo not drawn) [compound 173] |
| < 100 nM | O=S(=O)(c1ccc(C(F)(F)F)cc1)N1C2=Cc3c(-c4cccc(C(F)(F)F)c4)cccc3C1Cc1n[nH]cc12 (stereo not drawn) [compound 177] |
| < 100 nM | O=S(=O)(c1ccc(C(F)(F)F)nc1)N1C2Cc3n[nH]cc3C1c1cccc(F)c12 (stereo not drawn) [compound 183] |

| IC50 | SMILES |
| --- | --- |
| < 100 nM | O=S(=O)(c1ccc(C(F)(F)F)cc1)N1C2Cc3cccc(F)c3C1Cc1n[nH]cc12 (stereo not drawn) [compound 190] |
| < 100 nM | O=S(=O)(c1ccc(C(F)(F)F)cc1)N1C2Cc3cccc(F)c3C1Cc1n[nH]cc12 (stereo not drawn) [compound 191] |
| < 100 nM | O=S(=O)(c1ccc(C(F)(F)F)nc1)N1C2Cc3[nH]ncc3C1c1ccccc12 (stereo not drawn) [compound 197] |
| < 100 nM | O=C1c2n[nH]cc2C2c3ccccc3C1N2S(=O)(=O)c1ccc(C(F)(F)F)nc1 (stereo not drawn) [compound 200] |
| < 100 nM | O=S(=O)(c1ccc(C(F)(F)F)nc1)N1C2c3ccccc3C1[C@@H](F)c1n[nH]cc12 (stereo partly drawn) [compound 206] |
| < 100 nM | O=S(=O)(c1ccc(C(F)(F)F)nc1)N1C2c3c[nH]nc3[C@H](F)C1c1cccc(F)c12 (stereo partly drawn) [compound 207] |
| < 100 nM | O=S(=O)(c1ccc(C(F)(F)F)nc1)N1C2Cc3cccc(Br)c3[C@@H]1Cc1n[nH]cc12 [compound 212] |
| < 100 nM | O=S(=O)(c1ccc(C(F)(F)F)nc1)N1C2c3cn[nH]c3C(F)(F)C1c1c(F)cccc12 (stereo not drawn) [compound 215] |
| < 100 nM | O=S(=O)(c1ccc(C(F)(F)F)nc1)N1C2Cc3cccc(Br)c3C1c1cn[nH]c1C2 (stereo not drawn) [compound 218] |
| < 100 nM | O=S(=O)(c1ccc(C(F)(F)F)nc1)N1C2Cc3[nH]ncc3C1c1cc(Cl)ccc12 (stereo not drawn) [compound 222] |
| < 100 nM | COC(=O)c1cccc2c1C1Cc3[nH]ncc3C2N1S(=O)(=O)c1ccc(C(F)(F)F)nc1 (stereo not drawn) [compound 226] |
| < 100 nM | O=S(=O)(c1ccc(C(F)(F)F)nc1)N1C2Cc3[nH]ncc3C1c1cccc(Cl)c12 (stereo not drawn) [compound 228] |
| < 100 nM | Cc1noc(-c2cccc3c2C2Cc4[nH]ncc4C3N2S(=O)(=O)c2ccc(C(F)(F)F)nc2)n1 (stereo not drawn) [compound 234] |
| < 100 nM | O=C1c2[nH]ncc2C2c3c(F)cccc3C1N2S(=O)(=O)c1ccc(Cl)cc1 (stereo not drawn) [compound 236] |
| < 100 nM | O=S(=O)(c1ccc(C(F)(F)F)nc1)N1C2c3cn[nH]c3[C@@H](O)C1c1cccc(F)c12 (stereo partly drawn) [compound 238] |
| < 100 nM | O=C1c2[nH]ncc2C2c3c(F)cccc3C1N2S(=O)(=O)c1ccc(Cl)cc1 (stereo not drawn) [compound 242] |

Same assay, conditions: numeric bounds given instead of class symbols; assay described in Example A; read-out: γAPP IC50

| IC50 | SMILES |
| --- | --- |
| > 300 nM | Cn1ncc(C2CC3Cc4[nH]ncc4C(C2)N3S(=O)(=O)c2ccc(Cl)cc2)n1 (stereo not drawn) [compound 139] |
| > 10 nM | Cc1cc(F)cc2c1C1c3c[nH]nc3CC2N1S(=O)(=O)c1ccc(C(F)(F)F)nc1 (stereo not drawn) [compound 158] |
| > 30 nM | O=S(=O)(c1ccc(C(F)(F)F)nc1)N1C2Cc3[nH]ncc3C1c1ccccc12 (stereo not drawn) [compound 196] |

Same assay, conditions: γAPP IC50 (nM), class symbols; assay described in Example A

| SMILES | IC50 |
| --- | --- |
| O=S(=O)(c1ccc(C(F)(F)F)nc1)N1C2Cc3n[nH]cc3C1c1ncsc12 (stereo not drawn) [compound 187] | 100 to 499 nM |
| O=S(=O)(c1ccc(C(F)(F)F)nc1)N1C2Cc3n[nH]cc3C1c1ncsc12 (stereo not drawn) [compound 188] | > 1000 nM |
| O=S(=O)(c1ccc(C(F)(F)F)nc1)N1C2Cc3n[nH]cc3C1c1ncsc12 (stereo not drawn) [compound 189] | 100 to 499 nM |
